Legend:
Type in all cases: functional
NCI-H322M [1] = assay: Cytotoxicity against human NCI-H322M cells assessed as cell growth at 10^-4 M after 48 hrs by SRB assay relative to control; conditions: read-out: Activity
COLO 205 = assay: Cytotoxicity against human COLO205 cells assessed as cell growth at 10^-4 M after 48 hrs by SRB assay relative to control; conditions: COLO 205, 48 h, read-out: Activity
IGROV-1 [2] = assay: Cytotoxicity against human IGROV1 cells after 48 hrs by SRB assay; conditions: IGROV-1, 48 h
[3] = Cytotoxicity against human OVCAR3 cells after 48 hrs by SRB assay; conditions: OVCAR-3, 48 h
[4] = Cytotoxicity against human OVCAR8 cells after 48 hrs by SRB assay; conditions: OVCAR-8, 48 h
[5] = Cytotoxicity against human SKOV3 cells after 48 hrs by SRB assay; conditions: SK-OV-3, 48 h
786-0 [6] = assay: Cytotoxicity against human 786-0 cells after 48 hrs by SRB assay; conditions: 786-0, 48 h
U-251 = assay: Cytotoxicity against human U251 cells assessed as cell growth at 10^-4 M after 48 hrs by SRB assay relative to control; conditions: U-251, 48 h, read-out: Activity
NCI-H322M [7] = assay: Cytotoxicity against human NCI-H322M cells assessed as cell growth at 10^-8 M after 48 hrs by SRB assay relative to control; conditions: read-out: Activity
SF-295 [8] = assay: Cytotoxicity against human SF295 cells assessed as cell growth at 10^-8 M after 48 hrs by SRB assay relative to control; conditions: SF-295, 48 h, read-out: Activity
MDA-MB-435 = assay: Cytotoxicity against human MDA-MB-435 cells assessed as cell growth at 10^-8 M after 48 hrs by SRB assay relative to control; conditions: MDA-MB-435, 48 h, read-out: Activity
SK-MEL-5 [9] = assay: Cytotoxicity against human SK-MEL-5 cells assessed as cell growth at 10^-4 M after 48 hrs by SRB assay relative to control; conditions: SK-MEL-5, 48 h, read-out: Activity
A498 = assay: Cytotoxicity against human A498 cells assessed as cell growth at 10^-4 M after 48 hrs by SRB assay relative to control; conditions: A498, 48 h, read-out: Activity
[10] = Cytotoxicity against human UO31 cells assessed as cell growth at 10^-4 M after 48 hrs by SRB assay relative to control; conditions: UO-31, 48 h, read-out: Activity
[11] = Cytotoxicity against human SKOV3 cells assessed as cell growth at 10^-8 M after 48 hrs by SRB assay relative to control; conditions: SK-OV-3, 48 h, read-out: Activity
MDA-MB-468 = assay: Cytotoxicity against human MDA-MB-468 cells assessed as cell growth at 10^-8 M after 48 hrs by SRB assay relative to control; conditions: MDA-MB-468, 48 h, read-out: Activity
[12] = Cytotoxicity against human EKVX cells assessed as cell growth at 10^-7 M after 48 hrs by SRB assay relative to control; conditions: read-out: Activity
NCI-H322M [13] = assay: Cytotoxicity against human NCI-H322M cells assessed as cell growth at 10^-7 M after 48 hrs by SRB assay relative to control; conditions: read-out: Activity
[14] = Cytotoxicity against human HCT116 cells assessed as cell growth at 10^-7 M after 48 hrs by SRB assay relative to control; conditions: HCT-116, 48 h, read-out: Activity
[15] = Cytotoxicity against human HCT15 cells assessed as cell growth at 10^-7 M after 48 hrs by SRB assay relative to control; conditions: HCT-15, 48 h, read-out: Activity
KM12 = assay: Cytotoxicity against human KM12 cells assessed as cell growth at 10^-7 M after 48 hrs by SRB assay relative to control; conditions: KM12, 48 h, read-out: Activity
SW-620 = assay: Cytotoxicity against human SW620 cells assessed as cell growth at 10^-7 M after 48 hrs by SRB assay relative to control; conditions: SW-620, 48 h, read-out: Activity
SF-268 [16] = assay: Cytotoxicity against human SF268 cells assessed as cell growth at 10^-7 M after 48 hrs by SRB assay relative to control; conditions: SF-268, 48 h, read-out: Activity
LOX IMVI = assay: Cytotoxicity against human LOXIMVI cells assessed as cell growth at 10^-7 M after 48 hrs by SRB assay relative to control; conditions: read-out: Activity
SF-268 [17] = assay: Cytotoxicity against human SF268 cells after 48 hrs by SRB assay; conditions: SF-268, 48 h
SNB-19 [18] = assay: Cytotoxicity against human SNB19 cells after 48 hrs by SRB assay; conditions: SNB-19, 48 h
IGROV-1 [19] = assay: Cytotoxicity against human IGROV1 cells assessed as cell growth at 10^-7 M after 48 hrs by SRB assay relative to control; conditions: IGROV-1, 48 h, read-out: Activity
786-0 [20] = assay: Cytotoxicity against human 786-0 cells assessed as cell growth at 10^-7 M after 48 hrs by SRB assay relative to control; conditions: 786-0, 48 h, read-out: Activity
SN12C = assay: Cytotoxicity against human SN12C cells assessed as cell growth at 10^-7 M after 48 hrs by SRB assay relative to control; conditions: read-out: Activity
[21] = Cytotoxicity against human UO31 cells assessed as cell growth at 10^-7 M after 48 hrs by SRB assay relative to control; conditions: UO-31, 48 h, read-out: Activity
MCF7 [22] = assay: Cytotoxicity against human MCF7 cells assessed as cell growth at 10^-7 M after 48 hrs by SRB assay relative to control; conditions: MCF7, 48 h, read-out: Activity
MDA-MB-231 = assay: Cytotoxicity against human MDA-MB-231 cells assessed as cell growth at 10^-7 M after 48 hrs by SRB assay relative to control; conditions: MDA-MB-231, 48 h, read-out: Activity
SF-295 [23] = assay: Cytotoxicity against human SF295 cells assessed as cell growth at 10^-6 M after 48 hrs by SRB assay relative to control; conditions: SF-295, 48 h, read-out: Activity
SNB-19 [24] = assay: Cytotoxicity against human SNB19 cells assessed as cell growth at 10^-6 M after 48 hrs by SRB assay relative to control; conditions: SNB-19, 48 h, read-out: Activity
SK-MEL-5 [25] = assay: Cytotoxicity against human SK-MEL-5 cells assessed as cell growth at 10^-6 M after 48 hrs by SRB assay relative to control; conditions: SK-MEL-5, 48 h, read-out: Activity
[26] = Cytotoxicity against human UO31 cells assessed as cell growth at 10^-6 M after 48 hrs by SRB assay relative to control; conditions: UO-31, 48 h, read-out: Activity
MCF7 [27] = assay: Cytotoxicity against human MCF7 cells assessed as cell growth at 10^-6 M after 48 hrs by SRB assay relative to control; conditions: MCF7, 48 h, read-out: Activity
[28] = read-out: LC50 (the source's name)

Question: Which growth at 100 µM (NCI-H322M [1]) does the source give for `COc1ccc(CCN2COc3c([C@@H](C)CCC=C(C)C)ccc(C)c3C2)cc1OC` here?
Answer: -69%

Question: And the growth at 100 µM (COLO 205)?
Answer: -100%

Question: And the GI50 (IGROV-1 [2])?
Answer: 1.08 µM

Question: And the LC50 (concentration killing 50% of cells) (IGROV-1 [2])?
Answer: 12.7 µM

Question: And the TGI (IGROV-1 [2])?
Answer: 3.52 µM

Question: And the GI50 [3]?
Answer: 3.55 µM

Question: What about the LC50 [3] of the same compound?
Answer: 40.1 µM

Question: And the TGI [3]?
Answer: 14.1 µM

Question: What about the GI50 [4] of the same compound?
Answer: 4.21 µM

Question: What about the TGI [4] of the same compound?
Answer: 20.2 µM

Question: And the CC50 [4, 28]?
Answer: 89.5 µM

Question: What about the GI50 [5] of the same compound?
Answer: 11.8 µM

Question: What about the LC50 (concentration killing 50% of cells) [5] of the same compound?
Answer: 81.8 µM

Question: What about the TGI [5] of the same compound?
Answer: 31.1 µM

Question: What about the LC50 (786-0 [6]) of the same compound?
Answer: 8.72 µM

Question: What about the growth at 100 µM (U-251) of the same compound?
Answer: -100%

Question: And the growth at 0.01 µM (NCI-H322M [7])?
Answer: 87%

Question: What about the growth at 0.01 µM (SF-295 [8]) of the same compound?
Answer: 81%

Question: What about the growth at 0.01 µM (MDA-MB-435) of the same compound?
Answer: 97%

Question: And the growth at 100 µM (SK-MEL-5 [9])?
Answer: -100%

Question: And the growth at 100 µM (A498)?
Answer: -93%

Question: What about the growth at 100 µM [10] of the same compound?
Answer: -96%

Question: What about the growth at 0.01 µM [11] of the same compound?
Answer: 97%

Question: What about the growth at 0.01 µM (MDA-MB-468) of the same compound?
Answer: 75%

Question: And the growth at 0.1 µM [12]?
Answer: 91%

Question: And the growth at 0.1 µM (NCI-H322M [13])?
Answer: 95%

Question: And the growth at 0.1 µM [14]?
Answer: 92%

Question: And the growth at 0.1 µM [15]?
Answer: 86%

Question: What about the growth at 0.1 µM (KM12) of the same compound?
Answer: 96%

Question: What about the growth at 0.1 µM (SW-620) of the same compound?
Answer: 93%

Question: And the growth at 0.1 µM (SF-268 [16])?
Answer: 79%

Question: And the growth at 0.1 µM (LOX IMVI)?
Answer: 84%

Question: What about the GI50 (SF-268 [17]) of the same compound?
Answer: 1.45 µM

Question: What about the TGI (SF-268 [17]) of the same compound?
Answer: 4.34 µM

Question: And the CC50 (SF-268 [17]; [28])?
Answer: 17.3 µM

Question: And the GI50 (SNB-19 [18])?
Answer: 12.1 µM

Question: And the TGI (SNB-19 [18])?
Answer: 42.8 µM

Question: What about the CC50 (SNB-19 [18]; [28]) of the same compound?
Answer: > 100 µM

Question: What about the growth at 0.1 µM (IGROV-1 [19]) of the same compound?
Answer: 97%

Question: What about the growth at 0.1 µM (786-0 [20]) of the same compound?
Answer: 65%

Question: What about the growth at 0.1 µM (SN12C) of the same compound?
Answer: 89%

Question: What about the growth at 0.1 µM [21] of the same compound?
Answer: 92%

Question: And the growth at 0.1 µM (MCF7 [22])?
Answer: 90%

Question: And the growth at 0.1 µM (MDA-MB-231)?
Answer: 82%

Question: And the growth at 1 µM (SF-295 [23])?
Answer: 80%

Question: And the growth at 1 µM (SNB-19 [24])?
Answer: 95%

Question: What about the growth at 1 µM (SK-MEL-5 [25]) of the same compound?
Answer: 90%

Question: What about the growth at 1 µM [26] of the same compound?
Answer: 76%

Question: And the growth at 1 µM (MCF7 [27])?
Answer: 99%

Source: ChEMBL document CHEMBL3390836, “Mannich- and LedererManasse-based analogues of the natural product S-(+)-curcuphenol as cancer proliferation and migration inhibitors” (Medchemcomm, 2012)
